# Several values for one entry are separate records, joined by “and”; a condition that tells them apart may be missing. Identical values can stand only once.
# How the values were obtained:
# [1] = system: HepG2 cells; assay: CoQ10 level in HepG2 cells after CoQ10 treatment; extraction with methanol alone, LC/MS/MS detection; assay type: in vitro ADME; settings: 100 μM CoQ10 in isopropanol, replicates 1-3
# Procedure: (§1) To further validate the utility of the spectrophotometric method for the quantitative assessment of CoQ10 in biological samples, the experiment described above was repeated using HASMC, HepG2, and PaCa2 cell lines. Further, a second set of cell samples were prepared using each of the three cell types for analysis to determine CoQ10 levels using LC/MS/MS methods routinely used in the art. Briefly, cells were plated and treated with CoQ10 in isopropanol or the CoQ10 proprietary delivery formulation as set forth above, and harvested at 3, 6, or 24 hours after plating. Cell pellets were either extracted using the method set forth above, resuspending the cells in Buffers A and B, and extracting the CoQ10 with Buffer C, or the cell pellets were sent to a diagnostic laboratory (IriSys Research & Development Inc) for quantitative assessment of CoQ10 using extraction with methanol alone followed by LC/MS/MS detection.
# [2] = system: HepG2 cells; assay: CoQ10 level in HepG2 cells after CoQ10 treatment; Buffer A/B/C extraction, UV spectrophotometry at 275 nm; assay type: in vitro ADME; settings: for average level of CoQ10 in cells: Hep2G cells; for CoQ10 / Conc (pM/cell): HepG2 cells, OD275 detection, replicates 1-3
# Procedure: (§2) The assay for quantitation of CoQ10 was used to determine the CoQ10 levels in various cells lines after CoQ10 treatment for various times. The cell lines used in the studies were the normal human aortic smooth muscle cells (HASMC), the hepatic cancer cell line HepG2, and the human pancreatic carcinoma cell line PaCa2. All cells lines are commercially available and were maintained according to instruction from the manufacturer/supplier of the cell lines.
# 200 μl of various concentrations of CoQ10 in Buffer A, or Buffer A alone, were aliquoted into glass vials and 10 μl of Buffer B was added to each vial. Cells treated with various concentrations of CoQ10 were collected at predetermined time points and washed. Cell pellet samples (e.g., about 10^5-10^7 cells) were combined with 200 μl of Buffer A and 10 μl of Buffer B, and the cell pellets were resuspended in the buffer mixture. The sample mixture turned opaque upon mixing Buffers A and B with cells. The mixtures were transferred into glass vials.
# The glass vials from step 2 were warmed to 65° C. for 1 minute. The samples turned clear upon heating, and again became opaque upon cooling to room temperature.
# A 200 μl aliquot of Buffer C was added to each vial. The vials were again warmed to 65° C. The solution in the vials spontaneously partitioned into two phases, with the second extraction buffer layer (upper layer) containing substantially all of the CoQ10 material.
# A 50 μl sample of the upper extraction layer was removed and analyzed on a UV spectrometer at 275 nm. The amount of CoQ10 in each sample was determined by comparison to a standard curve.
# In the experimental trials, about 1×10^6 HASMC, HepG2, or PaCa2 cells were plated into each well of a 6 well plate. At the time of plating, the cells were treated with defined concentrations of CoQ10, in triplicate, in isopropanol or a proprietary CoQ10 delivery formulation for 3, 6, or 24 hours. After the defined incubation time, the cells were washed with cold TPBS (PBS with 100 mM Tris, pH 7.4), harvested by trypsinization, washed (2×) with 1 ml of TPBS, and pelleted by centrifugation at 1,500 RPM. Immediately after trypsinization, the cells were counted to determine the total number of viable cells in the sample.
# Cell pellets were resuspended in 200 μL of Buffer A (first extraction buffer) and 10 μL of Buffer B (surfactant/detergent). Upon addition of Buffer B, the sample became opaque and a precipitate formed. The resuspended cells were transferred to a borosilicate vial. For control samples not containing cells, the CoQ10 containing solution was added to a glass vial and hexane was added to bring the volume to 200 μl, and 10 μl of Buffer B was then added.
# The vials were incubated at 65° C. for 2 minutes in a water bath, with gentle mixing at about half way through the incubation. The sample changed from cloudy to clear during the incubation. The sample was removed from the water bath and 200 μL of Buffer C (second extraction buffer) was added to the vial. The sample partitioned into two phases, polar and non-polar. The top, non-polar, layer was clear, while a white precipitate formed the bottom of the vial. The sample was again heated at 65° C. for 1 minute with gentle mixing about half way through the incubation. The solution was cooled to room temperature and a 75 μL aliquot of the upper phase was placed in a quartz cuvette and analyzed by UV spectrophotometry at a wavelength of 275 nm. The absorption was documented.
# For quantitative assessment of CoQ10 in the biological samples, a standard curve was generated essentially as set forth above (Example 2). For each independent determination of CoQ10, the standard curve was generated by making a 50 μM CoQ10 stock solution in hexane and serially diluting of the stock material. Each of the samples from the serial dilution was measured at a wavelength of 275 nm in a UV spectrometer and plotted on a graph. […]
# [3] = system: PaCa2 cells; assay: CoQ10 level in PaCa2 cells after CoQ10 treatment; extraction with methanol alone, LC/MS/MS detection; assay type: in vitro ADME, human; settings: 100 μM CoQ10 in isopropanol, replicates 1-3
# Procedure: as §1
# [4] = system: PaCa2 cells; assay: CoQ10 level in PaCa2 cells after CoQ10 treatment; Buffer A/B/C extraction, UV spectrophotometry at 275 nm; assay type: in vitro ADME, human; settings: 100 μM CoQ10 in isopropanol, OD275 detection, replicates 1-3
# Excerpt: as §2
# In the experimental trials, about 1×10^6 HASMC, HepG2, or PaCa2 cells were plated into each well of a 6 well plate. […] Immediately after trypsinization, the cells were counted to determine the total number of viable cells in the sample. […]
# The vials were incubated at 65° C. for 2 minutes in a water bath, with gentle mixing at about half way through the incubation. […] The solution was cooled to room temperature and a 75 μL aliquot of the upper phase was placed in a quartz cuvette and analyzed by UV spectrophotometry at a wavelength of 275 nm. […]
# For quantitative assessment of CoQ10 in the biological samples, a standard curve was generated essentially as set forth above (Example 2). […] Each of the samples from the serial dilution was measured at a wavelength of 275 nm in a UV spectrometer and plotted on a graph.
# A power series was used to fit the standard curve from the standard and an equation was determined. […]
smiles,measurement,setting,value
"COC1=C(OC)C(=O)C(C/C=C(\C)CC/C=C(\C)CC/C=C(\C)CC/C=C(\C)CC/C=C(\C)CC/C=C(\C)CC/C=C(\C)CC/C=C(\C)CC/C=C(\C)CCC=C(C)C)=C(C)C1=O [CoQ10, Coenzyme Q10]",CoQ10,[1],2.061 µM and 1.223 µM and 1.599 µM
same,Conc (pM/cell),[1],0.34 pM/cell and 0.24 pM/cell (2×)
same,average level of CoQ10 in cells,"[2]; 50 μM in propanol, 3 hours",14.40 pM/cell
same,average level of CoQ10 in cells,"[2]; 50 μM in propanol, 6 hours",27.07 pM/cell
same,average level of CoQ10 in cells,"[2]; 50 μM in propanol, 24 hours",37.04 pM/cell
same,average level of CoQ10 in cells,"[2]; 100 μM in propanol, 3 hours",25.20 pM/cell
same,average level of CoQ10 in cells,"[2]; 100 μM in propanol, 6 hours",34.74 pM/cell
same,average level of CoQ10 in cells,"[2]; 100 μM in propanol, 24 hours",45.43 pM/cell
same,CoQ10,[2]; 50 μM CoQ10 in isopropanol,39.76 µM and 41.84 µM and 51.45 µM
same,Conc (pM/cell),[2]; 50 μM CoQ10 in isopropanol,29.6 pM/cell and 30.7 pM/cell and 51.9 pM/cell
same,CoQ10,[2]; 100 μM CoQ10 in isopropanol,36.08 µM and 49.71 µM and 50.51 µM
same,Conc (pM/cell),[2]; 100 μM CoQ10 in isopropanol,70.7 pM/cell and 121.2 pM/cell and 101 pM/cell
same,CoQ10,[3],0.371 µM and 1.917 µM and 1.186 µM
same,Conc (pM/cell),[3],0.31 pM/cell and 0.17 pM/cell and 0.12 pM/cell
same,CoQ10,[4],28.46 µM and 12.5 µM and 4.05 µM
same,Conc (pM/cell),[4],1.56 pM/cell and 9.09 pM/cell and 3.2 pM/cell

# Reference: patent US10114013B2, “Method for detection of coenzyme Q10” (Berg LLC, priority 2012, dated 2018)
